Measured values reported in US20080125432A1 (Devgen NV, priority 2004, published 2008).

What was measured:
Type in all cases: cell-based
Ito (Kv4.3) = molecular target: T1, Ito (Kv4.3) (Homo sapiens, UniProt Q9UK17); assay: Whole-cell patch clamp in human atrial myocytes: Ito
T1 construct: endogenous in cells; host or cells: freshly isolated human atrial myocytes
T1 sequence (Q9UK17 1-655): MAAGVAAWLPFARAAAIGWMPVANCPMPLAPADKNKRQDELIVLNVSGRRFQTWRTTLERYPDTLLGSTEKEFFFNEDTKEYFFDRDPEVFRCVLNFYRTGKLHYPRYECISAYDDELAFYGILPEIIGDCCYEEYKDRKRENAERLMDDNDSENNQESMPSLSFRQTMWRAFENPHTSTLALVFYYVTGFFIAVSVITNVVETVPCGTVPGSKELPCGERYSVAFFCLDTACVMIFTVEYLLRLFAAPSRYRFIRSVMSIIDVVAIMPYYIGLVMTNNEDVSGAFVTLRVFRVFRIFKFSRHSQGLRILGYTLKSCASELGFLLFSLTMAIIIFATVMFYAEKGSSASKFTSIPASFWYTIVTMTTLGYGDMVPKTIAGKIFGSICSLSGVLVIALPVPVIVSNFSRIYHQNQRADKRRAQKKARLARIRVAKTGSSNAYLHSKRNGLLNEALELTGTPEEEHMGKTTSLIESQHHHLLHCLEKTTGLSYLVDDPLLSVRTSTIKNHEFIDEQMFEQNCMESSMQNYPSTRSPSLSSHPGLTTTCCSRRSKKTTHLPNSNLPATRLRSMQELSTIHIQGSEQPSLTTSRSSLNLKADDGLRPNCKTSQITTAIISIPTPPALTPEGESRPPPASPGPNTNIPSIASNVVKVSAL
T1 sequence (Q9NS61 1-270 partner): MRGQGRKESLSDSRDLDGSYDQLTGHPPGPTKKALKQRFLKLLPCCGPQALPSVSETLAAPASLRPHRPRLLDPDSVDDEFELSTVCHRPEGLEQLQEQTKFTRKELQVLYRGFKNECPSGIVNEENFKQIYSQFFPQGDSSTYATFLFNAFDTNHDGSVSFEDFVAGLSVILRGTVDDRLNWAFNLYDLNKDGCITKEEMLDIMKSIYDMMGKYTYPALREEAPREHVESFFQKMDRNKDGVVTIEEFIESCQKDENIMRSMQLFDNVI
Protocol: (§1) The blocking profile of the compounds of the invention is determined on the following channels of the human atrial myocytes: INa, Ito, Isus and IK1 channel currents.
(§2) Human atrial myocytes: Myocytes were prepared from specimens with grossly normal anatomical aspect, excised from hearts of patients with normal P-wave electrocardiogram, undergoing bypass surgery. Human atrial sample were obtained following approval by the ethical committee. […]
(§3) Experiments were performed at room temperature (20-25° C.) for INa and at 32-34° C. for Ito, Isus, IK1. Currents were measured using the whole-cell variant of the patch clamp method. […]
(§4) After rupture of the cell membrane to enter the whole-cell mode, current amplitude and kinetics were allowed to stabilize for 3-7 min before initiating the experimental procedure. K^+ currents recorded from human atrial myocytes were elicited by a 500 ms pulse to +60 mV from a holding potential of −50 mV for Ito and Isus. Ito was measured as a peak current amplitude whereas Isus as a current present at the end of the 500 ms voltage pulse. In addition, the area under the curve, before and after compound, were measured over the course of the pulse period. […]

[1] = tested on: Isus (Kv1.5 + additional channels); assay: Whole-cell patch clamp in human atrial myocytes: Isus; conditions: n = 3 cells
Protocol: as §1, §2, §3, §4

Kv1.5 = molecular target: T2, Kv1.5 (Homo sapiens, UniProt P22460); assay: Whole-cell patch clamp in human atrial myocytes: Kv1.5 current calculated from Isus
T2 construct: endogenous in cells; host or cells: freshly isolated human atrial myocytes
T2 sequence (P22460 whole entry): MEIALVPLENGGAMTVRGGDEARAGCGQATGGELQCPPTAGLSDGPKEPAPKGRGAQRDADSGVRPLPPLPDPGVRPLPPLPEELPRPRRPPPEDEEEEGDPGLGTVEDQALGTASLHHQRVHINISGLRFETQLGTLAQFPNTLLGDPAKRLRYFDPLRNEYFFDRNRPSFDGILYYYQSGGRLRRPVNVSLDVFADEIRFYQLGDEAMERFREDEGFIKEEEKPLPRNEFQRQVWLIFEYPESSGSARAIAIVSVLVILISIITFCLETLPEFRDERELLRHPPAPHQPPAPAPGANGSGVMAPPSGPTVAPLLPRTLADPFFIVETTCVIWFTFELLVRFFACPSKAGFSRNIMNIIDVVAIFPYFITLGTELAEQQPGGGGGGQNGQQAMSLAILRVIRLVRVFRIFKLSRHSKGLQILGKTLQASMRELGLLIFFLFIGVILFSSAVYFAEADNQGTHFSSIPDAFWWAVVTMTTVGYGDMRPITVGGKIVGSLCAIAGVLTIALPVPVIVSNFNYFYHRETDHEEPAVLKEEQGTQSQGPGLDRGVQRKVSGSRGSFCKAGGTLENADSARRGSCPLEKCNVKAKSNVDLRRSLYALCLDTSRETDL
Protocol: as §1, §2, §3, §4

COc1ccccc1Nc1nc(C)c(C(=O)N[C@H]2CCC[C@@H]2OCc2ccccc2)s1 [Compound 68, 2-(2-methoxy-phenylamino)-4-methyl-thiazole-5-carboxylic acid (1S,2S)-2-(benzyloxycyclopent-1-yl) amide]
Block at 10 μM in %: Ito (Kv4.3) (Ito (Kv4.3); 10 μM, n = 3 cells): 82.0 ± 3.6%
IC50 (Ito (Kv4.3); dose-response analysis, read-out: IC50 on the ITO current): 0.8 µM
Block at 10 μM in %: Isus (Kv1.5 + additional channels) [1]: 55.2 ± 6.4%
Block at 10 μM in %: Kv1.5 (calculated) (Kv1.5; 10 μM, n = 3 cells, derived from subtracting the remaining current from the end of pulse current amplitude): 81.1 ± 3.7%
IC50 (Kv1.5; dose-response analysis, Kv1.5 derived from subtracting the remaining current from the end of pulse current amplitude): 1.4 µM
